# Source: ChEMBL document CHEMBL5214928, “DEAD-Box Helicase DDX3X as a Host Target against Emerging Viruses: New Insights for Medicinal Chemical Approaches” (J Med Chem, 2022)
# Legend:
# [1] = molecular target: T1, ATP-dependent RNA helicase DDX3X (Homo sapiens, UniProt O00571); assay: Inhibition of recombinant DDX3X (unknown origin) helicase activity using 6-FAM-labeled dsRNA as substrate incubated for 30 mins by fluorescence based assay
# [2] = molecular target: T1, ATP-dependent RNA helicase DDX3X; assay: Binding affinity to DDX3X (unknown origin) assessed as inhibition constant
# [3] = Half life in mouse administered intraperitoneally; format: ADME; details: in vivo, route ip
# [4] = molecular target: T1, ATP-dependent RNA helicase DDX3X; assay: Inhibition of DDX3X (unknown origin) helicase activity
# [5] = tested on: Human immunodeficiency virus 1; assay: Antiviral activity against recombinant HIV-1 infected in CD4+ human HeLa cells assessed as reduction in viral replication; format: functional, organism-based; details: Human immunodeficiency virus 1, HeLa
# HeLa = assay: Cytotoxicity against human HeLa cells assessed as reduction in cell viability incubated for 72 hrs with replacement of medium containing compound for every 24 hrs by MTS based Cell Titer 96 viability assay; format: functional
# [6] = Selectivity index, ratio of CC50 for human HeLa cells to EC50 for recombinant HIV-1 infected in CD4+ human HeLa cells; format: toxicity, cell-based; details: read-out: Ratio CC50/EC50
# SARS-CoV-2 = assay: Antiviral activity against SARS-CoV-2 isolate 2019-nCoV/Italy-INMI1 infected in African green monkey Vero E6 cells assessed as reduction in viral replication at MOI of 0.01 incubated for 5 days by qRT-PCR analysis; format: functional, organism-based; details: Severe acute respiratory syndrome coronavirus 2, 2019-nCoV/Italy-INMI1, Vero C1008, 120 h
# [7] = Cytotoxicity against African green monkey Vero E6 cells assessed as reduction in cell viability; format: toxicity, cell-based, Vero C1008; details: chlorocebus sabaeus
# [8] = tested on: Human immunodeficiency virus 1; assay: Antiviral activity against HIV-1 NL4-3 infected in human H9 cells assessed as reduction in viral replication at MOI of 0.03 measured after 48 hrs by Bright-Glo Luciferase Assay; format: functional, organism-based; details: Human immunodeficiency virus 1, NL4-3, H9, 48 h
# H9 = assay: Cytotoxicity against human H9 cells assessed as reduction in cell viability incubated for 72 hrs by luciferase based assay; format: functional
# [9] = Selectivity index, ratio of CC50 for human H9 cells to EC50 for HIV-1 NL4-3 infected in human H9 cells; format: toxicity, cell-based; details: read-out: Ratio CC50/EC50
# T1 sequence (O00571 whole entry): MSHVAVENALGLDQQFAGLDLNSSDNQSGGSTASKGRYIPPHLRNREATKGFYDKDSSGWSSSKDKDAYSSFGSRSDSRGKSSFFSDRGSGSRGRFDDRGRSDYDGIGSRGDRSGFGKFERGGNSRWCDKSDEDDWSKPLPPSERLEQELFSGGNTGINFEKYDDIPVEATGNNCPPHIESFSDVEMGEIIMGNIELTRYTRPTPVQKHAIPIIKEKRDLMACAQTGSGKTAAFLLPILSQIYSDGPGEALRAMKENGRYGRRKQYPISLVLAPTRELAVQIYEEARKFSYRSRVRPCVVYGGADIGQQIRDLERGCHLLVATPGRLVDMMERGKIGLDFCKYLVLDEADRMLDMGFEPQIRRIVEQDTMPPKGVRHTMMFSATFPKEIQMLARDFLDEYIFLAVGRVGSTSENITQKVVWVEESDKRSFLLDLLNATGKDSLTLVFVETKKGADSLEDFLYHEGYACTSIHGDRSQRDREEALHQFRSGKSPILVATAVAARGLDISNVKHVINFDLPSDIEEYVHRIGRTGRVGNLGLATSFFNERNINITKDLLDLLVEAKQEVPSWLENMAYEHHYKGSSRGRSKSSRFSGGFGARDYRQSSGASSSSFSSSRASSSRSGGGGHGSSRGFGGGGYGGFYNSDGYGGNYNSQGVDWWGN
smiles,measurement,setting,value
O=C(O)c1cc(Nc2nc3ccccc3[nH]2)ccc1O,IC50,[1],200 nM
Cc1ccc(Nc2nc(N/N=C/c3ccccc3O)nc(NN3CCOCC3)n2)cc1Cl,Ki,[2],1600 nM
CCCCc1cn(-c2ccc(NC(=O)Nc3ccccc3C(F)(F)F)cc2)nn1,half-life,[3],300 min
CCCCc1cn(-c2ccc(NC(=O)Nc3ccccc3OC3CCCC3)cc2)nn1,IC50,[4],140 nM
CC(C)Cc1cn(-c2ccc(NC(=O)Nc3ccccc3F)cc2)nn1,IC50,[4],120 nM
Cc1cccc(NC(=O)CCN2C(=O)/C(=C/c3ccccc3O)SC2=S)c1,Ki,[2],97000 nM
Oc1ccccc1/C=N/Nc1nc(NCc2ccccc2)nc(NN2CCOCC2)n1,Ki,[2],600 nM
O=C1S/C(=C\c2c(NCCO)nc3ccccn3c2=O)C(=O)N1CCc1ccccc1,Ki,[2],200 nM
CCN(CC)Nc1nc(N/N=C/c2ccccc2O)nc(Nc2ccccc2)n1,Ki,[2],100 nM
CC(=O)Nc1ccc(/C=N/Nc2nc(Nc3ccccc3)nc(Nc3ccccc3)n2)cc1,Ki,[2],300 nM
same,EC50,[5],2 µM
same,CC50,HeLa,10 µM
same,selectivity ratio,[6],5
O=C(CCN1C(=O)/C(=C/c2cccc(F)c2)SC1=S)Nc1ccccc1O,Ki,[2],7600 nM
CCCCc1cn(-c2ccc(NC(=O)Nc3ccccc3F)cc2)nn1,IC50,[4],600 nM
O=C(CCN1C(=O)/C(=C/c2ccccc2O)SC1=S)Nc1cc(F)cc(F)c1,Ki,[2],500 nM
CCCCc1cn(-c2ccc(NC(=O)Nc3ccc(C)nc3)cc2)nn1,IC50,[4],1500 nM
CC(=O)Nc1ccc(/C=N/Nc2nc(NCc3ccccc3)nc(Nc3ccccc3)n2)cc1,Ki,[2],500 nM
CC(=O)Nc1ccc(/C=N/Nc2nc(Nc3ccccc3)nc(NN3CCOCC3)n2)cc1,Ki,[2],2200 nM
O=C(CCN1C(=O)/C(=C/c2ccccc2O)SC1=S)Nc1cccc(F)c1,Ki,[2],300 nM
same,EC50,[5],7.5 µM
same,CC50,HeLa,50 µM
same,EC50,SARS-CoV-2,< 5 µM
same,CC50,[7],> 100 µM
same,selectivity ratio,[6],7
CC(C)Cc1cn(-c2ccc(NC(=O)Nc3cccc(F)c3)cc2)nn1,IC50,[4],200 nM
O=C(NCCN1C(=O)/C(=C/c2ccccc2O)SC1=S)c1cccc(F)c1,Ki,[2],4300 nM
Oc1ccccc1/C=N/Nc1nc(NCc2ccc(F)cc2)nc(NN2CCOCC2)n1,Ki,[2],700 nM
O=C(O)c1ccccc1C(=O)Nc1nnc(-c2ccc(O)cc2)s1,EC50,[8],2800 nM
same,CC50,H9,125 µM
same,selectivity ratio,[9],45
